From the NIST ThermoML archive (doi:10.1021/acs.jced.5b01102)
± gives the expanded uncertainty stated by the source.

Experiment: refractive index (Na D-line) (dimensionless)
Conditions: 298.15 K; 101.33 kPa; Liquid; Standard Abbe refractometry

Row | refractive index | Compound
1 | 1.35947 ± 0.00033 | CCO [ethanol]
2 | 1.32655 ± 0.00031 | CO [methanol]
3 | 1.33251 ± 0.00031 | O [water]
